Results as given in the NIST ThermoML archive (doi:10.1021/je700339f).
Numbers after ± are expanded uncertainties.

Experiment: xn = mol fraction of the nth substance listed
Conditions: 298.15 K, Liquid

ClCCCl [1,2-dichloroethane] + CN(C)C=O
mass density [kg/m3]
Conditions	x2 = 0.0805	x2 = 0.1978	x2 = 0.302	x2 = 0.397	x2 = 0.4988	x2 = 0.6023	x2 = 0.7054	x2 = 0.8005	x2 = 0.9071
100 kPa	1221.2 ± 6	1186.2 ± 6	1154.9 ± 6	1126.5 ± 6	1095.7 ± 6.1	1064.5 ± 6	1033.6 ± 6	1005.2 ± 6	972.8 ± 6.1
500 kPa	1221.5 ± 6	1186.6 ± 6	1155.2 ± 6	1126.8 ± 6	1096 ± 6.1	1064.8 ± 6	1033.9 ± 6	1005.5 ± 6	973.1 ± 6.1
1000 kPa	1222 ± 6	1187 ± 6	1155.7 ± 6	1127.2 ± 6	1096.4 ± 6.3	1062.2 ± 6	1034.3 ± 5.7	1005.8 ± 6.1	973.3 ± 6.1
1500 kPa	1222.5 ± 6	1187.5 ± 6	1156.2 ± 6	1127.6 ± 6.1	1096.8 ± 6.1	1065.6 ± 6	1034.7 ± 6	1006.2 ± 6.1	973.7 ± 6.1
2000 kPa	1223 ± 6	1188 ± 6	1156.6 ± 6	1128 ± 6.1	1097.2 ± 6.1	1065.9 ± 6	1035 ± 6	1006.5 ± 6.1	974 ± 6.1
2500 kPa	1223.4 ± 6	1188.4 ± 6	1156.9 ± 6	1128.4 ± 6	1097.6 ± 6.1	1066.4 ± 6	1035.4 ± 6	1006.9 ± 6.1	974.3 ± 6.1
3000 kPa	1223.9 ± 6	1188.8 ± 6	1157.4 ± 6.1	1128.8 ± 6.1	1098 ± 6.1	1066.7 ± 6	1035.7 ± 6	1007.2 ± 6.1	974.6 ± 6.1
3500 kPa	1224.3 ± 6	1189.3 ± 6	1157.8 ± 6.1	1129.3 ± 6.1	1098.3 ± 6.1	1067 ± 6	1036.1 ± 6	1007.6 ± 6.1	974.9 ± 6.1
4000 kPa	1224.8 ± 6	1189.7 ± 6	1158.2 ± 6.1	1129.6 ± 6.1	1098.7 ± 6.1	1067.4 ± 6	1036.4 ± 6	1007.9 ± 6.1	975.2 ± 6.1
4500 kPa	1225.3 ± 6	1190.1 ± 6.1	1158.6 ± 6.1	1130.1 ± 6.1	1099.2 ± 6.1	1067.8 ± 6.1	1036.7 ± 6	1008.2 ± 6.1	975.5 ± 6.1
5000 kPa	1225.8 ± 6	1190.6 ± 6.1	1159.1 ± 6.1	1130.4 ± 6.1	1099.5 ± 6.1	1068.2 ± 6.1	1037.1 ± 6	1008.5 ± 6.1	975.9 ± 6.1
5500 kPa	1226.3 ± 6.1	1191 ± 6.1	1159.5 ± 6.1	1130.9 ± 6.1	1099.8 ± 6.1	1068.5 ± 6.1	1037.4 ± 6	1008.9 ± 6.1	976.2 ± 6.1
6000 kPa	1226.7 ± 6.1	1191.5 ± 6.1	1159.9 ± 6.1	1131.4 ± 6.1	1100.2 ± 6.1	1068.8 ± 6.1	1037.7 ± 6	1009.2 ± 6.1	976.5 ± 6.1
6500 kPa	1227.1 ± 6.1	1191.9 ± 6.1	1160.3 ± 6.1	1131.6 ± 6.1	1100.6 ± 6.1	1069.3 ± 6.1	1038.1 ± 6	1009.5 ± 6.1	976.8 ± 6.1
7000 kPa	1227.6 ± 6.1	1192.3 ± 6.1	1160.8 ± 6.1	1132.1 ± 6.1	1101 ± 6.1	1069.6 ± 6.1	1038.5 ± 6	1009.8 ± 6.1	977.1 ± 6.1
7500 kPa	1228 ± 6.1	1192.7 ± 6.1	1161.2 ± 6.1	1132.5 ± 6.1	1101.4 ± 6.1	1070 ± 6.1	1038.8 ± 6	1010.2 ± 6.1	977.4 ± 6.2
8000 kPa	1228.5 ± 6.1	1193.2 ± 6.1	1161.6 ± 6.1	1132.8 ± 6.1	1101.8 ± 6.1	1070.3 ± 6.1	1039.2 ± 6	1010.5 ± 6.1	977.8 ± 6.1
8500 kPa	1228.9 ± 6.1	1193.7 ± 6.1	1161.9 ± 6.1	1133.2 ± 6.1	1102.1 ± 6.1	1070.7 ± 6.1	1039.5 ± 6.1	1010.8 ± 6.1	978.2 ± 6.1
9000 kPa	1229.3 ± 6.1	1194 ± 6.1	1162.4 ± 6.1	1133.7 ± 6.1	1102.5 ± 6.1	1071.1 ± 6.1	1039.9 ± 6.1	1011.2 ± 6.1	978.4 ± 6.2
9500 kPa	1229.8 ± 6.1	1194.5 ± 6.1	1162.8 ± 6.1	1134 ± 6.1	1102.9 ± 6.1	1071.4 ± 6.1	1040.2 ± 6.1	1011.5 ± 6.1	978.7 ± 6.2
9900 kPa	–	–	–	–	–	–	–	1011.8 ± 6.1	–
10000 kPa	1230.4 ± 6.1	1195 ± 6.1	1163.2 ± 6.1	1134.5 ± 6.1	1103.3 ± 6.1	1071.8 ± 6.1	1040.6 ± 6.1	–	979.1 ± 2
10500 kPa	1230.8 ± 6.1	1195.4 ± 6.1	1163.6 ± 6.1	1134.9 ± 6.1	1103.7 ± 6.1	1072.2 ± 6.1	1040.9 ± 6.1	1012.2 ± 6.1	979.4 ± 6.2
11000 kPa	1231.2 ± 6.1	1195.8 ± 6.1	1164.1 ± 6.1	1135.3 ± 6.1	1104 ± 6.1	1072.5 ± 6.1	1041.2 ± 6.1	1012.4 ± 6.1	979.7 ± 6.1
11400 kPa	–	–	1164.4 ± 6.1	–	–	–	–	–	–
11500 kPa	1231.7 ± 6.1	1196.2 ± 6.1	–	1135.7 ± 6.1	1104.4 ± 6.1	1072.9 ± 6.1	1041.6 ± 6.1	1012.8 ± 6.1	980 ± 6.2
11900 kPa	–	–	–	1136 ± 6.1	–	–	1041.9 ± 6.1	–	–
12000 kPa	1232.2 ± 6.1	1196.7 ± 6.1	1164.9 ± 6.1	–	1104.8 ± 6.2	1073.2 ± 6.1	–	1013.2 ± 6.1	980.3 ± 6.2
12400 kPa	–	–	1165.2 ± 6.1	–	–	–	1042.2 ± 6.1	–	980.5 ± 6.2
12500 kPa	1232.6 ± 6.1	1197.1 ± 6.1	–	1136.5 ± 6.1	1105.2 ± 6.2	1073.5 ± 6.1	–	1013.5 ± 6.1	–
12900 kPa	–	–	–	1136.8 ± 6.1	–	–	–	–	–
13000 kPa	1233.1 ± 6.2	1197.4 ± 6.2	1165.6 ± 6.1	–	1105.6 ± 6.2	1073.9 ± 6.1	1042.6 ± 6.1	1013.8 ± 6.1	980.9 ± 6.2
13400 kPa	1233.4 ± 6.2	–	–	–	–	–	–	–	–
13500 kPa	–	1197.9 ± 6.2	1166 ± 6.1	1137.3 ± 6.2	1105.9 ± 6.2	1074.2 ± 6.1	1042.9 ± 6.1	1014.1 ± 6.1	981.2 ± 6.2
13900 kPa	–	–	–	–	–	1074.6 ± 6.1	–	–	–
14000 kPa	1233.9 ± 6.2	1198.3 ± 6.2	1166.4 ± 6.2	1137.6 ± 6.2	1106.2 ± 6.2	–	1043.2 ± 6.1	1014.4 ± 6.1	981.5 ± 6.2
14500 kPa	1234.3 ± 6.2	1198.8 ± 6.2	1166.8 ± 6.2	1137.9 ± 6.2	1106.6 ± 6.2	1074.9 ± 6.1	1043.5 ± 6.1	1014.7 ± 6.1	981.8 ± 6.2
14900 kPa	–	–	–	1138.2 ± 6.2	–	–	1043.8 ± 6.1	–	–
15000 kPa	1234.7 ± 6.2	1199.1 ± 6.2	1167.2 ± 6.2	–	1107 ± 6.2	1075.2 ± 6.1	–	1015 ± 6.1	982.1 ± 6.2
15400 kPa	–	–	–	–	–	–	–	–	982.3 ± 6.2
15500 kPa	1235.2 ± 6.2	1199.6 ± 6.2	1167.6 ± 6.2	1138.7 ± 6.2	1107.3 ± 6.2	1075.6 ± 6.1	1044.2 ± 6.1	1015.3 ± 6.1	–
15900 kPa	–	1199.9 ± 6.2	–	–	–	–	–	–	–
16000 kPa	1235.6 ± 2.7	–	1168 ± 6.2	1139 ± 6.2	1107.7 ± 6.2	1075.9 ± 6.1	1044.5 ± 6.1	1015.7 ± 6.2	982.6 ± 6.2
16400 kPa	–	1200.3 ± 6.2	–	–	–	–	–	1015.9 ± 6.1	–
16500 kPa	1236 ± 2.7	–	1168.4 ± 6.2	1139.4 ± 6.2	1108 ± 6.2	1076.2 ± 6.1	1044.8 ± 6.1	–	983 ± 2
16900 kPa	–	–	–	1139.7 ± 6.2	–	–	–	–	–
17000 kPa	1236.4 ± 6.2	1200.7 ± 6.2	1168.7 ± 6.2	–	1108.4 ± 6.2	1076.6 ± 6.2	1045.1 ± 6.1	1016.3 ± 6.2	983.2 ± 6.2
17500 kPa	1236.8 ± 6.2	1201.1 ± 6.2	1169.1 ± 6.2	1140.1 ± 6.2	1108.7 ± 6.2	1076.9 ± 6.2	1045.4 ± 6.1	1016.6 ± 6.2	983.5 ± 6.2
17900 kPa	–	–	–	–	–	–	–	1016.9 ± 6.2	–
18000 kPa	1237.2 ± 6.2	1201.5 ± 6.2	1169.5 ± 6.2	1140.5 ± 6.2	1109 ± 6.2	1077.3 ± 6.2	1045.7 ± 6.1	–	983.8 ± 2
18400 kPa	–	–	–	–	–	1077.6 ± 6.2	–	–	–
18500 kPa	1237.7 ± 6.2	1201.9 ± 6.2	1169.9 ± 6.2	1140.8 ± 6.2	1109.4 ± 6.2	–	1046.1 ± 6.1	1017.2 ± 6.2	984.1 ± 6.2
19000 kPa	1238.2 ± 6.2	1202.4 ± 6.2	1170.2 ± 6.2	1141.2 ± 6.2	1109.9 ± 6.2	1078 ± 6.2	1046.4 ± 6.1	1017.5 ± 6.2	984.4 ± 6.2
19500 kPa	1238.6 ± 6.3	1202.7 ± 6.2	1170.6 ± 6.2	1141.6 ± 6.2	1110.2 ± 6.2	1078.3 ± 6.2	1046.7 ± 6.1	1017.8 ± 6.2	984.7 ± 6.2
20000 kPa	1239 ± 6.3	1203.1 ± 6.2	1171.1 ± 6.2	1142.1 ± 6.2	1110.6 ± 6.2	1078.6 ± 6.2	1047.08 ± 6.1	1018.2 ± 6.2	985.1 ± 6.2
